Assay: xn = mol fraction of the nth substance listed
Conditions: 101 kPa

CNc1ccccc1 + CC[n+]1ccn(C)c1.F[B-](F)(F)F
speed of sound [m/s]
Conditions	293.15 K	298.15 K	303.15 K	308.15 K
x1 = 0.0712	–	1614.7	1602.2	1590.8
x1 = 0.0944	–	1613.8	1601	–
x1 = 0.1175	–	1613.2	1600.3	1588.7
x1 = 0.1685	1624.3	1612.5	1599.3	1587.6
x1 = 0.2164	–	–	1599.5	1587
x1 = 0.2818	1626.5	1613.9	–	1587.3
x1 = 0.3365	1628.2	–	1601.2	1587.4
x1 = 0.3805	1629.4	1616.2	1602.2	–
x1 = 0.4166	1630.8	1617.3	1602.8	1587.8
x1 = 0.4775	1632.2	1617.7	1602.8	1587.7
x1 = 0.5287	1632.6	1617.9	1602.4	1586.3
x1 = 0.5855	1631.8	1616.5	1601.1	1584.2
x1 = 0.6144	1631	1615.8	1599.8	1583
x1 = 0.6638	1629.2	1612.8	1596.4	–
x1 = 0.7202	1625.3	1608.7	1591.8	1573.8
x1 = 0.7822	1618.8	1601.9	1584.4	1566.7
x1 = 0.8343	1612	1594.6	1577.1	1558.8
x1 = 0.8775	1605.6	1587.8	1570.3	1551.7
